# Laboratory results: patent publication US12187705B2, “Heteroaryl-triazole and heteroaryl-tetrazole compounds as pesticides” (Bayer Aktiengesellschaft, priority 2018, dated 2025)
# Key:
# Format in all cases: in vivo
# Phaedon cochleariae = Phaedon cochleariae spray test; conditions: foliar, 168 h, Chinese cabbage leaf disks, after 7 days
# Protocol: Phaedon cochleariae—Spray Test
# (§1) To produce a suitable preparation of active compound, 1 part by weight of active compound is mixed with the stated amount of solvents and is diluted with water, containing an emulsifier concentration of 1000 ppm, to the desired concentration. Further test concentrations are prepared by dilution with emulsifier containing water.
# Chinese cabbage (Brassica pekinensis) leaf disks are sprayed with a preparation of the active ingredient of the desired concentration. Once dry, the leaf disks are infested with mustard beetle larvae (Phaedon cochleariae).
# After 7 days mortality in % is determined. 100% means all beetle larvae have been killed and 0% means none of the beetle larvae have been killed.
# Myzus persicae [1] = assay: Myzus persicae oral test; conditions: 120 h
# How it was run: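 Feeding test: compound diluted in water was combined with IPL41 insect medium (33%+15% sugar) under a parafilm seal. A mixed population of green peach aphids fed through the membrane. Mortality (%) was scored after 5 days.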
# Ctenocephalides felis [2] = assay: Ctenocephalides felis oral test; conditions: Ctenocephalides felis, in Bos taurus, po, 48 h
# How it was run: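 About 20 adult unfed fleas fed through parafilm on cattle blood containing compound (DMSO concentrate diluted in blood); blood held at 37° C., fleas at room temperature. Mortality in % scored after 2 days (100% = all killed).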
# Spodoptera frugiperda = Spodoptera frugiperda spray test; conditions: in Zea mays, 168 h
# How it was run: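 Caterpillars are placed on sprayed, dried maize leaf sections. Sprays contain compound diluted in water with emulsifier at 1000 ppm; mortality in % is determined 7 days later.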
# Diabrotica balteata = Diabrotica balteata spray test; conditions: Diabrotica balteata, 168 h; 160 μg/well, wheat seeds, after 7 days; read-out: efficacy (seedlings grown)
# How it was run: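 Wheat seeds germinated 1 day on agar were sprayed with compound diluted in water with 1000 ppm emulsifier, then infested with 10-20 Diabrotica balteata larvae. Efficacy in % scored after 7 days: 100% = seedlings grown as untreated, uninfected control; 0% = no seedlings grown.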
# Nezara viridula = Nezara viridula spray test; conditions: in Hordeum vulgare, 96 h
# How it was run: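 Barley plants infested with stink bug larvae were sprayed with compound diluted in water containing 1000 ppm emulsifier. Mortality (%) was scored after 4 days, 100% meaning all bugs killed.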
# Boophilus microplus = Boophilus microplus injection test; conditions: Rhipicephalus microplus, 168 h, 20 μg/animal, egg deposition after 7 days, read-out: efficacy (infertile eggs)
# How it was run: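 Engorged adult female ticks, five per dose, received 1 μl of compound in DMSO injected into the abdomen and were kept in a climate chamber. Fertile egg deposition was checked after 7 days, with eggs of unclear fertility held until hatching at about 42 days. Efficacy 100% = all eggs infertile, 0% = all fertile.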
# [3] = test system: Aedes aegypti strain MONHEIM; assay: Aedes aegypti test (AEDSAE surface treatment & contact assay); conditions: 24 hours after contact, read-out: efficacy (mortality); for mortality at 4 mg/m2: surface concentration 4 mg/m^2, 30 minutes exposure; for mortality at 20 mg/m2: surface concentration 20 mg/m^2, 30 minutes exposure
# How it was run: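 Compound dissolved in acetone (2 mg/ml) with 2000 ppm rapeseed oil methyl ester and dried onto a glazed tile. Adult mosquitoes held on the treated surface for 30 minutes exposure. Percent mortality scored 24 hours after contact.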
# Ctenocephalides felis [4] = assay: Ctenocephalides felis in-vitro contact test adult cat flea; conditions: Ctenocephalides felis; 5 μg/cm^2 (=500 g/ha), after 48 hours; read-out: efficacy (fleas dead or moribund)
# How it was run: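 Compound in acetone was coated on glass tube walls, giving 5 μg/cm^2 at 900 ppm. 5-10 adult cat fleas were held at room temperature for 48 h, then heat-challenged at 45-50° C. Fleas immotile or uncoordinated were scored dead/moribund, expressed as % efficacy.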
# [5] = test system: Culex quinquefasciatus strain P00; assay: Culex quinquefasciatus test (CULXFA surface treatment & contact assay); conditions: 24 hours after contact, read-out: efficacy (mortality); for mortality at 4 mg/m2: surface concentration 4 mg/m^2, 30 minutes exposure; for mortality at 20 mg/m2: surface concentration 20 mg/m^2, 30 minutes exposure
# How it was run: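 Compound dissolved in acetone (2 mg/ml) with 2000 ppm rapeseed oil methyl ester, applied to glazed tile and dried. Adult strain P00 mosquitoes exposed to the surface for 30 minutes. Percent mortality scored 24 hours after contact.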
# [6] = test system: Musca domestica strain WHO-N; assay: Musca domestica test (MUSCDO surface treatment & contact assay); conditions: 24 hours after contact, read-out: efficacy (mortality); for mortality at 20 mg/m2: surface concentration 20 mg/m^2, 30 minutes exposure; for mortality at 4 mg/m2: surface concentration 4 mg/m^2, 30 minutes exposure
# Protocol: Musca domestica Test (MUSCDO Surface Treatment & Contact Assay)
# (§2) Solvent: Aceton+2000 ppm rapeseed oil methyl ester (RME)
# (§3) In order to produce a sufficient, active ingredient containing solution it is necessary to solve the test-compound in the solvent-mix (Acetone at 2 mg/ml/RME 2000 ppm). This solution is pipetted onto a glazed tile and after evaporation of the Acetone, adult flies of the species Musca domestica strain WHO-N are placed onto the dried surface. The exposure time is 30 minutes.
# (§4) Mortality in percent (%) is determined 24 hours after contact to the treated surface. 100% mortality means that all test-insects are dead, whereas 0% means that not a single insect died.
# Myzus persicae [7] = assay: Myzus persicae spray test; conditions: in Brassica rapa, foliar, 120 h
# Protocol: Myzus persicae—Spray Test
# as §1
# Chinese cabbage (Brassica pekinensis) leaf disks infected with all instars of the green peach aphid (Myzus persicae), are sprayed with a preparation of the active ingredient of the desired concentration.
# After 5 days mortality in % is determined. 100% means all aphids have been killed and 0% means none of the aphids have been killed.
# Nilaparvata lugens = Nilaparvata lugens spray test; conditions: Nilaparvata lugens, in Oryza sativa, 96 h
# Protocol: Nilaparvata lugens—Spray Test
# as §1
# Rice plants (Oryza sativa) are sprayed with a preparation of the active ingredient of the desired concentration and the plants are infested with the brown planthopper (Nilaparvata lugens).
# After 4 days mortality in % is determined. 100% means all planthoppers have been killed and 0% means none of the planthoppers have been killed.
# [8] = test system: Anopheles funestus strain FUMOZ-R; assay: Anopheles funestus test (ANPHFU surface treatment & contact assay); conditions: 24 hours after contact, read-out: efficacy (mortality); for mortality at 4 mg/m2: surface concentration 4 mg/m^2, 30 minutes exposure; for mortality at 20 mg/m2: surface concentration 20 mg/m^2, 30 minutes exposure
# Protocol: Anopheles funestus Test (ANPHFU Surface Treatment & Contact Assay)
# as §2
# as §3, with “mosquitoes” for “flies”, “Anopheles funestus” for “Musca domestica”, “FUMOZ-R (Hunt et al., Med Vet Entomol. 2005 September; 19(3):271-5)” for “WHO-N”
# as §4
SMILES,mortality at 500 g/ha (Phaedon cochleariae),mortality at 4 ppm (Myzus persicae [1]),mortality at 20 ppm (Myzus persicae [1]),mortality at 100 ppm (Ctenocephalides felis [2]),mortality at 500 g/ha (Spodoptera frugiperda),"pest or weed control at 160 µg/disc, 160 µg/well (Diabrotica balteata)",mortality at 500 g/ha (Nezara viridula),pest or weed control at 0.02 mg (Boophilus microplus),mortality at 4 mg/m2 [3],mortality at 20 mg/m2 [3],"pest or weed control at 5 µg/cm2, 5 µg/cm2 (Ctenocephalides felis [4])",mortality at 4 mg/m2 [5],mortality at 20 mg/m2 [5],mortality at 20 mg/m2 [6],mortality at 500 g/ha (Myzus persicae [7]),mortality at 500 g/ha (Nilaparvata lugens),mortality at 4 mg/m2 [8],mortality at 20 mg/m2 [8],mortality at 4 mg/m2 [6]
CC(c1ncnn1-c1ncccn1)N(CC1CC1)C(=O)c1cc(Cl)cc(Cl)c1Cl (stereo not shown) [Example I-009],100%,100%,100%,100%,100%,100%,–,–,–,–,–,–,–,–,–,–,–,–,–
CC(c1ncnn1-c1ncccn1)N(CC1CC1)C(=O)c1cc(-c2ccccc2)cc(C(F)(F)F)c1 (stereo not shown) [Example I-010],100%,–,–,100%,–,–,–,–,–,–,–,–,–,–,–,–,–,–,–
CC(c1ncnn1-c1ncccn1)N(CC1CC1)C(=O)c1cc(-c2ccc(F)cc2)cc(C(F)(F)F)c1 (stereo not shown) [Example I-012],100%,–,100%,100%,100%,100%,–,–,–,–,–,–,–,–,–,–,–,–,–
CC(c1ncnn1-c1ncccn1)N(CC1CC1)C(=O)c1cccc(Cl)c1Cl (stereo not shown) [Example I-016],100%,–,–,–,–,100%,100%,–,–,–,–,–,–,–,–,–,–,–,–
CC(c1ncnn1-c1ncccn1)N(CC1CC1)C(=O)c1c(Cl)c(C(F)(F)F)nn1C (stereo not shown) [Example I-026],100%,–,–,–,–,100%,–,–,–,–,–,–,–,–,–,–,–,–,–
CC(c1ncnn1-c1ncccn1)N(CC1CC1)C(=O)c1cc(C2CC2)on1 (stereo not shown) [Example I-028],100%,–,–,100%,–,100%,–,–,–,–,–,–,–,–,–,–,–,–,–
C[C@@H](NC(=O)c1cc(Cl)cc(S(=O)(=O)c2ccc(F)cc2)c1)c1ncnn1-c1ncccn1 [Example I-043],–,100%,–,100%,100%,100%,100%,100%,80 to 100%,90 to 100%,90%,80 to 100%,80 to 100%,80 to 100%,90%,100%,–,–,–
C[C@@H](NC(=O)c1cc(Cl)cc(S(=O)(=O)C(F)(F)F)c1)c1ncnn1-c1ccc(C#N)cn1 [Example I-067],–,100%,–,100%,100%,100%,100%,80%,80 to 100%,90 to 100%,90%,80 to 100%,80 to 100%,80 to 100%,–,–,–,–,–
C[C@@H](NC(=O)c1cc(Cl)cc(S(=O)(=O)C(F)(F)F)c1)c1ncnn1-c1ccccn1 [Example I-068],–,90%,–,100%,100%,100%,100%,100%,80 to 100%,90 to 100%,90%,80 to 100%,80 to 100%,80 to 100%,–,–,85 to 100%,85 to 100%,80 to 100%
C[C@@H](NC(=O)c1cc(Cl)cc([S+](C)[O-])c1)c1ncnn1-c1ccc(C#N)cn1 (stereo partly shown) [Example I-070],–,100%,–,100%,100%,100%,100%,100%,80 to 100%,90 to 100%,100%,80 to 100%,80 to 100%,80 to 100%,100%,–,85 to 100%,85 to 100%,–
C[C@@H](NC(=O)c1cc(Cl)cc(S(=O)(=O)C(F)(F)F)c1)c1ncnn1-c1cnccn1 [Example I-074],–,100%,–,100%,100%,100%,100%,100%,–,90 to 100%,90%,–,80 to 100%,80 to 100%,90%,–,–,–,–
C[C@@H](NC(=O)c1cc(Cl)cc(S(=O)(=O)C(F)(F)F)c1)c1ncnn1-c1ncc(F)cc1F [Example I-078],–,–,–,–,100%,100%,100%,–,80 to 100%,90 to 100%,–,80 to 100%,80 to 100%,80 to 100%,–,–,–,85 to 100%,–
"C[C@H](NC(=O)c1cc(Cl)cc([S+]([O-])CC(F)(F)F)c1)c1ncnn1-c1ncccn1 (stereo partly drawn) [Example I-092, 3-chloro-N-{(1S)-1-[1-(pyrimidin-2-yl)-1H-1,2,4-triazol-5-yl]ethyl}-5-[(2,2,2-trifluoroethyl)sulfinyl]benzamide]",–,100%,–,–,–,100%,100%,–,80 to 100%,90 to 100%,80%,80 to 100%,80 to 100%,–,100%,100%,85 to 100%,–,–
C[C@@H](NC(=O)c1cc(C(F)(F)F)n(C)n1)c1ncnn1-c1ncccn1 [Example I-100],–,–,–,–,100%,100%,100%,–,80 to 100%,90 to 100%,–,80 to 100%,80 to 100%,80 to 100%,90%,100%,85 to 100%,85 to 100%,80 to 100%
